Square brackets hold non-standard residues; d marks the D form. Peptide text beside a SMILES is read from it. * marks the point of attachment. Hyp = O=C(O)[C@@H]1C[C@@H](O)CN1; Cbz = O=C(OCc1ccccc1)*; Boc = CC(C)(C)OC(=O)*; OBn = c1ccc(CO*)cc1; Bn = c1ccc(C*)cc1; OtBu = CC(C)(C)O*
Key:
ABCB1 = ABCB1 (Homo sapiens, UniProt P08183); set-up: key: the inhibitor is active (+); it is inactive (−); the effect is unknown (?); conditions: cited from earlier work
P-gp = target: T1, P-gp (Homo sapiens, UniProt P08183); assay: Flow cytometry, inhibition of mitoxantrone efflux in NIH3T3 cells expressing P-gp; type: cell-based; conditions: for inhibition at 1 h, 10 µM: human, probe mitoxantrone, read-out: % pump inhibition at 10 μM of compound, P-gp; for inhibition at 1 h, 10 µM / % pump inhibition at 10 μM of compound, P-gp: 10 μM compound; for inhibition at 1 h, 10 µM / IC50 / % pump inhibition at 10 μM of compound, P-gp: mitoxantrone efflux; for IC50: mathematical adjustment of experimental points
T1 construct: expressed in transfected cells; host or cells: NIH3T3 (ATCC CRL-1658), stably transfected with retroviral vector pHaMDR1/A
From the text: (§1) The HEK-293 human fibroblast line (ATCC cell collection CRL-1573) is transfected with either BCRP (Robey R. W. et al. 2003, Br. J. Cancer 89(10) 1971-1978, [32]) or ABCC1, cloned into the pcDNA3.1 expression vector (Invitrogen), or with the empty pcDNA3.1 vector. The NIH3T3 cell line (ATCC CRL-1658) was stably transfected with pHaMDR1/A (Cardarelli et al. 1995 Cancer Res 55 1086-1091, [33]), which is a retroviral vector that expresses the wild-type MDR1 protein. The BHK-21 cell line (ATCC CCL-10) was transfected with MRP1 cloned into the pcDNA3.1 expression vector, or the empty pcDNA3.1 vector. The cells are maintained in culture in DMEM glutamax II (Invitrogen) supplemented with 10% of fetal bovine serum and 1% of penicillin/streptomycin. The data are processed with Sigmaplot V11 (http://www.systat.com/), and the equation for mathematical adjustment of the experimental data for calculating the IC50 values: f=a×(1−exp(−b×x)) (a=slope, b=intercept on the y-axis).
(§2) The cells expressing P-gp, BCRP and MRP, and their corresponding controls, are placed in the presence of 10 and 2 μM of mitoxantrone for the first two transporters and of 1 μM of daunorubicin for the 3rd. Substrate accumulation is carried out for 30 minutes at 37° C. in the presence or absence of varied concentrations of the molecules tested, at a final DMSO (dimethyl sulfoxide) concentration of 0.5%. After washing with PBS (phosphate buffered saline), the cells are incubated in medium containing the same concentrations of molecules tested as previously, for 1 h at 37° C. The intracellular fluorescence of mitoxantrone and daunorubicin anticancer agent is measured with the FACscan flow cytometer (Becton Dickinson, Mountain, View, Calif.). The drugs are excited at 488 nm. The emission of mitoxantrone is measured at 650 nm, whereas the emission of daunorubicin is measured at 530 nm. The effectiveness of the molecules tested is expressed by equation 1: % effectiveness=100×(FA−FBG)/(FC−FBG), where FA corresponds to the intracellular level of substrate measured in the cells overexpressing ABCG2 (corresponding to the lowest level of fluorescence in the absence of inhibitor), FC corresponds to the fluorescence in the control cells transfected with the empty vector (and therefore to the maximum accumulation of substrate in the cells) and FBG corresponds to the fluorescence measured in the absence of substrate and in the presence of inhibitor.
(§3) The inhibitory effect of the compounds is quantified by measuring, by flow cytometry, the efflux of an anticancer drug transported by the pump under consideration, i.e. mitoxantrone for P-gp and BCRP and daunorubicin for MRP1. It is compared with that of the reference product, reversin 121. The products are tested at 10 μM, then at 2 μM for those which block at least 80% of the efflux of mitoxantrone, and for some, a more complete concentration range is tested so as to establish the concentration value producing 50% inhibition, IC50, as indicated in FIG. 3.

BCRP = target: T2, BCRP (Homo sapiens, UniProt Q9UNQ0); assay: Flow cytometry, inhibition of mitoxantrone efflux in HEK-293 cells transfected with BCRP; type: cell-based; conditions: 10 μM compound
T2 construct: expressed in transfected cells; host or cells: HEK-293 (ATCC CRL-1573), pcDNA3.1 expression vector (Invitrogen)
T2 sequence (Q9UNQ0 1-655): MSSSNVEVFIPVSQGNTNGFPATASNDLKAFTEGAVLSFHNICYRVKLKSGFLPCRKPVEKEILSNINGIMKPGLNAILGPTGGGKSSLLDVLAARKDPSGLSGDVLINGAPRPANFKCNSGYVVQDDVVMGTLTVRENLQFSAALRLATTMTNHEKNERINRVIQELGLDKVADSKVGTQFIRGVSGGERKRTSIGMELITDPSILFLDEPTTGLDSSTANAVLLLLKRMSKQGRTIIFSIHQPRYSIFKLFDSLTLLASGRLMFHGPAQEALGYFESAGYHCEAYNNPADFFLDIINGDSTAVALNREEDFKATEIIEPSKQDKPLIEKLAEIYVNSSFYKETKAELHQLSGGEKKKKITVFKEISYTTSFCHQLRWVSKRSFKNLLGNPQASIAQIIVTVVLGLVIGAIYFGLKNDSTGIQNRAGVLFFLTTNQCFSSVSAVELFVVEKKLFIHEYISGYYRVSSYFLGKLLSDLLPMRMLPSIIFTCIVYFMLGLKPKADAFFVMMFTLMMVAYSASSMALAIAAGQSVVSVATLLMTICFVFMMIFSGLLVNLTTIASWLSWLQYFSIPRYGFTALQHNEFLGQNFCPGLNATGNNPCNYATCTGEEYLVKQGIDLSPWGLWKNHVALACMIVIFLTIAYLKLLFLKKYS
From the text: as §1, §2, §3

ABCG2 = target: T3, ABCG2 (Homo sapiens, UniProt Q9UNQ0); set-up: key: the inhibitor is active (+); it is inactive (−); the effect is unknown (?); conditions: cited from earlier work
T3 sequence (Q9UNQ0 1-655): T2 sequence (Q9UNQ0 1-655)

ABCC1 = ABCC1 (Homo sapiens, UniProt P33527); conditions: cited from earlier work
MRP1 = target: T4, MRP1 (Homo sapiens, UniProt P33527); assay: Flow cytometry, inhibition of daunorubicin efflux in cells transfected with MRP1; type: cell-based; conditions: 10 μM compound
T4 construct: expressed in transfected cells; host or cells: BHK-21 (ATCC CCL-10) with MRP1 in pcDNA3.1; HEK-293 transfected with ABCC1 in pcDNA3.1 is also described
From the text: as §1, §2
The inhibitory effect of the compounds is quantified by measuring, by flow cytometry, the efflux of an anticancer drug transported by the pump under consideration, i.e. mitoxantrone for P-gp and BCRP and daunorubicin for MRP1. It is compared with that of the reference product, reversin 121. […]

[1] = tested on: NIH3T3 cells expressing or not expressing P-gp; assay: Cytotoxicity test (MTT), cell survival after 72 h; type: cell-based
Experimental: The cells are seeded in a proportion of 10 000 per well in 96-well plates and incubated for 24 hours at 37° C. under 5% CO2. Varied concentrations of compounds Nos 2, 3, 4, 5 and 6, up to 20 times the IC50, are then added. The cytotoxicity is evaluated colorinnetrically with 3-(4,5-dimethylthiazol-2-yl)-2,5-diphenyltetrazolium bromide (MTT).
Increasing concentrations of compound No. 4 or No. 6 are applied to NIH3T3 cells expressing or not expressing P-gp. The cell survival is measured after 72 h and is expressed as a percentage. At 10 times the half-maximum-effect concentration, these two compounds are not toxic. Above this, the toxicity of compound No. 4 remains negligible, while that of compound No. 6 remains limited.

[2] = phase III; cited from earlier work

T4 sequence (P33527 whole entry): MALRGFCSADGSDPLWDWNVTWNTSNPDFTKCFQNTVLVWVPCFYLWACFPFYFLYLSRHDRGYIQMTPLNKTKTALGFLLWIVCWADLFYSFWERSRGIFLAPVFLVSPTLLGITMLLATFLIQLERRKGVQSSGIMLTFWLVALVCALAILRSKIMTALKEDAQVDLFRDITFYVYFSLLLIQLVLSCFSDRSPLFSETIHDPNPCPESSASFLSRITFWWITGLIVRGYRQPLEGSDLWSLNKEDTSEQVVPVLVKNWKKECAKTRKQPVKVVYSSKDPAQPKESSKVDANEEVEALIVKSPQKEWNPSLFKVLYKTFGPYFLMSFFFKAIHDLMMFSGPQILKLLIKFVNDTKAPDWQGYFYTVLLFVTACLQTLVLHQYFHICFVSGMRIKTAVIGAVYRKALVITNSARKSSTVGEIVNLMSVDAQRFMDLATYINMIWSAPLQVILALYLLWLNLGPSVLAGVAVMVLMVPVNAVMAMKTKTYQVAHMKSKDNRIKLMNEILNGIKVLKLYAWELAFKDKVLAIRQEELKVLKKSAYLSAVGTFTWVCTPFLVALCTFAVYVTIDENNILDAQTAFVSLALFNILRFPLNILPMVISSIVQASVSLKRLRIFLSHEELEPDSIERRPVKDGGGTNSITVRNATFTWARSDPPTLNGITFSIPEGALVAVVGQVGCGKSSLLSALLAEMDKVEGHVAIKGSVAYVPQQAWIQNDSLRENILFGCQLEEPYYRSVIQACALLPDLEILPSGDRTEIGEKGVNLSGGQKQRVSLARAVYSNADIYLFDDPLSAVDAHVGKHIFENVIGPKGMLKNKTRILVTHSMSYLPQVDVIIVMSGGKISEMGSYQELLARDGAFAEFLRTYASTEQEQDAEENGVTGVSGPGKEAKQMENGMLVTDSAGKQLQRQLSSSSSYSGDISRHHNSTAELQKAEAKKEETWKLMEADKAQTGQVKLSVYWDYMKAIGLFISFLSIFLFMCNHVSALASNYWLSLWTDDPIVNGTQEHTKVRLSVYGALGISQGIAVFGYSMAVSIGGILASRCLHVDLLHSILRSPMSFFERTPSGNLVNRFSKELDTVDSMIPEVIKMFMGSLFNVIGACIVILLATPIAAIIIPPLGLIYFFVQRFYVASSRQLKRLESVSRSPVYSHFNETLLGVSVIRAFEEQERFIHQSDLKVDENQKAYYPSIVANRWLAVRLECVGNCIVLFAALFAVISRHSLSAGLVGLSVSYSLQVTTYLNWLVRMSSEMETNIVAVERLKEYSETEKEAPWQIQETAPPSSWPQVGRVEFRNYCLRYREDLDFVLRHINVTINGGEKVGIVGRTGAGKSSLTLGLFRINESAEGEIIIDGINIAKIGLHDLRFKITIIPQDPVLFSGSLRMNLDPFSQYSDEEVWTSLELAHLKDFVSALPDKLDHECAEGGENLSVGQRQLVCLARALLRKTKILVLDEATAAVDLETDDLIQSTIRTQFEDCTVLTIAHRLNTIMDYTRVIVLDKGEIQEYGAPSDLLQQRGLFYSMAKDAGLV
Sequence of ABCC1 (P33527 whole entry): as above
Sequence of ABCB1 (P08183 whole entry): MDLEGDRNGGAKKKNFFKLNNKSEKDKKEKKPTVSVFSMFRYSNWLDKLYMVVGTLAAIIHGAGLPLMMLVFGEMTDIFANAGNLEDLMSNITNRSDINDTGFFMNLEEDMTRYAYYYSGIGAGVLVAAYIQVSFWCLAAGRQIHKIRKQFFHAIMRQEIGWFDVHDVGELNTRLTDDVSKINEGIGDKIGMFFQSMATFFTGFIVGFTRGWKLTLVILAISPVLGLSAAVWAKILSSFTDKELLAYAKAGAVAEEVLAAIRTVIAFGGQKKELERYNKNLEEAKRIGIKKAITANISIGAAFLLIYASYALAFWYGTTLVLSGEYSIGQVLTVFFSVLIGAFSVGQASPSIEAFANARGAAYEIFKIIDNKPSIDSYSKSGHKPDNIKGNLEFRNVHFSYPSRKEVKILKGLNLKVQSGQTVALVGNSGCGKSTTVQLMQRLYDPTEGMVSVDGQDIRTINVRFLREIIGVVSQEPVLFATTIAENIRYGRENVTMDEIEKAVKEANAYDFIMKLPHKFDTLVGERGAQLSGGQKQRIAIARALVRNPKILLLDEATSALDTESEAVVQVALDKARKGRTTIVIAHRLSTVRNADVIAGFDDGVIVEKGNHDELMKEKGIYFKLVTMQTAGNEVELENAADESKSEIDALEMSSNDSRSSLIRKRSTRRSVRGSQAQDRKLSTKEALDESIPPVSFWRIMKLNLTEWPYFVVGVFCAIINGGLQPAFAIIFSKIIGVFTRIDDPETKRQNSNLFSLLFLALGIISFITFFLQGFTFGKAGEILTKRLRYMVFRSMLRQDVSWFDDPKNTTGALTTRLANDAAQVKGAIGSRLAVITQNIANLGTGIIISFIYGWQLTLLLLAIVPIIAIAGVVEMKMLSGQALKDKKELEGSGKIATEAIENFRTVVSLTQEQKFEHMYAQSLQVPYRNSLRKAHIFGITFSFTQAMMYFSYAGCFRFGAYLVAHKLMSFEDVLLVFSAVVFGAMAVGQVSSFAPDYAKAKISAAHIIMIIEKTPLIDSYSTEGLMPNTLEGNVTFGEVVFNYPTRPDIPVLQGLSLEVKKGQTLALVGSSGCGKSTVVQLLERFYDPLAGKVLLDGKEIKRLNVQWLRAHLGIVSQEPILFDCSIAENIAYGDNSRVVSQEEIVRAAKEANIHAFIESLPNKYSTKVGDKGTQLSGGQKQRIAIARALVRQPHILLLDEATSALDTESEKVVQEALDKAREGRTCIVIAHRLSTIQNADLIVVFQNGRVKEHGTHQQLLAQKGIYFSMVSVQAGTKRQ
T1 sequence (P08183 whole entry): as above

COC(=O)c1cnc2n1CCc1ccccc1C2=C1CCN(CCc2ccc(OCc3ccc4ccccc4n3)cc2)CC1 [R101933 (laniquidar)]
activity of MDR inhibitor on ABCB1 (ABCB1): +

CC(C)(C)OC(=O)[C@H](CCCCNC(=O)OCc1ccccc1)NC(=O)[C@@H]1C[C@@H](OCC2CCCCC2)CN1C(=O)OC(C)(C)C [No. 5, N^α-Boc-trans-L-4-Hyp(CH2cHex)-L-Lys(Z)-OtBu]
inhibition at 1 h, 10 µM (P-gp): 82.2 ± 10.8% | IC50 (P-gp): 1.13 ± 0.34 µM | % pump inhibition at 10 μM of compound, BCRP (BCRP): 18.8 ± 10.0%

C/C=C/C[C@@H](C)C(=O)[C@H]1C(=O)N[C@@H](C(C)C)C(=O)N(C)CC(=O)N(C)[C@@H](CC(C)C)C(=O)N[C@@H](C(C)C)C(=O)N(C)[C@@H](CC(C)C)C(=O)N[C@@H](C)C(=O)N[C@H](C)C(=O)N(C)[C@@H](CC(C)C)C(=O)N(C)[C@@H](CC(C)C)C(=O)N(C)[C@@H](C(C)C)C(=O)N1C [PSC833 (valspodar)]
activity of MDR inhibitor on ABCB1 (ABCB1): + | activity of MDR inhibitor on ABCG2 (ABCG2): −

COc1cc(C(=O)C(=O)N2CCCC[C@H]2C(=O)OC(CCCc2cccnc2)CCCc2cccnc2)cc(OC)c1OC [VX-710 (biricodar)]
activity of MDR inhibitor on ABCB1 (ABCB1): + | activity of MDR inhibitor on ABCC1 (ABCC1): + | activity of MDR inhibitor on ABCG2 (ABCG2): +

CC(C)(C)OC(=O)C(CCCCNC(=O)OCc1ccccc1)NC(=O)C1CC(OC(=O)C2CCCCC2)CN1C(=O)OC(C)(C)C [No. 3, N^α-Boc-trans-L-4-Hyp(COcHex)-L-Lys(Z)-OtBu]
IC50 for P-gp compared with that of reversin 121 (P-gp): better than that of reversin | inhibition at 1 h, 10 µM (P-gp): 106 ± 13.4% | IC50 (P-gp): 1.68 ± 0.28 µM | inhibition at 1 h, 10 µM (BCRP; human, HEK-293 cells transfected with BCRP, probe mitoxantrone, read-out: % pump inhibition at 10 μM of compound, BCRP): 11.2% | % pump inhibition at 10 μM of compound, MRP1 (MRP1; 10 µM): non measurable

COc1cc2c(cc1OC)CN(CCc1ccc(NC(=O)c3cc(OC)c(OC)cc3NC(=O)c3cnc4ccccc4c3)cc1)CC2 [XR9576 (tariquidar)]
activity of MDR inhibitor on ABCB1 (ABCB1): + | activity of MDR inhibitor on ABCG2 (ABCG2): +

CC(C)(C)OC(=O)[C@H](CCCCNC(=O)OCc1ccccc1)NC(=O)[C@@H]1C[C@@H](OCc2ccccc2)CN1C(=O)OC(C)(C)C [No. 4, N^α-Boc-trans-L-4-Hyp(Bn)-L-Lys(Z)-OtBu] (Boc-[Hyp](Bn)-Lys(Cbz)-OtBu)
cytotoxicity ([1]; above 10 times the half-maximum-effect concentration): negligible | cytotoxicity ([1]; at 10 times the half-maximum-effect concentration): not toxic | IC50 for P-gp compared with that of reversin 121 (P-gp): twice as good | % pump inhibition at 10 μM of compound, P-gp (P-gp): 99.7 ± 11.0% | IC50 (P-gp): 0.73 ± 0.2 µM | % pump inhibition at 10 μM of compound, BCRP (BCRP; 10 µM): 16.6 ± 3.4% | % pump inhibition at 10 μM of compound, MRP1 (MRP1): low or zero | inhibition at 1 h, 10 µM (MRP1; human, probe daunorubicin, read-out: % pump inhibition at 10 μM of compound, MRP1): < 10%

O[C@@H](COc1cccc2ncccc12)CN1CCN([C@@H]2c3ccccc3[C@@H]3[C@H](c4ccccc42)C3(F)F)CC1 [Ly335979 (zosuquidar)]
clinical outcome [2]: stopped in phase III because of their adverse effects | activity of MDR inhibitor on ABCC1 (ABCC1): − | activity of MDR inhibitor on ABCG2 (ABCG2): −

CCOC/C=C/c1ccc(-c2nc(-c3ccc(NC(C)C)cc3)c(-c3ccc(NC(C)C)cc3)[nH]2)cc1 [ONT-093 (ontogeny)]
activity of MDR inhibitor on ABCB1 (ABCB1): + | activity of MDR inhibitor on ABCC1 (ABCC1): −

COc1cc2c(cc1OC)CN(CCc1ccc(NC(=O)c3cccc4c(=O)c5cccc(OC)c5[nH]c34)cc1)CC2 [GF120918 (elacridar)]
activity of MDR inhibitor on ABCB1 (ABCB1): + | activity of MDR inhibitor on ABCC1 (ABCC1): − | activity of MDR inhibitor on ABCG2 (ABCG2): +

CC(C)(C)OC(=O)N[C@@H](CC(=O)OCc1ccccc1)C(=O)N[C@@H](CCCCNC(=O)OCc1ccccc1)C(=O)OC(C)(C)C [Reversin 121, reference compound] (Boc-Asp(OBn)-Lys(Cbz)-OtBu)
% pump inhibition at 10 μM of compound, P-gp (P-gp): 75.8 ± 1.6% | IC50 (P-gp): 1.41 ± 0.34 µM | % pump inhibition at 10 μM of compound, BCRP (BCRP): 37.2 ± 3.7%

CC(C)(C)OC(=O)[C@H](CCCCNC(=O)OCc1ccccc1)NC(=O)[C@@H]1C[C@@H](OC(=O)Cc2ccccc2)CN1C(=O)OC(C)(C)C (relative stereo) [No. 2, N^α-Boc-trans-L-4-Hyp(COBn)-L-Lys(Z)-OtBu]
% pump inhibition at 10 μM of compound, P-gp (P-gp): 68.0 ± 10.0% | % pump inhibition at 10 μM of compound, BCRP (BCRP): 10.0 ± 7.5%
